Laboratory results taken from patent US9504729B2, “Antiangiogenic small molecules and methods of use” (The United States of America, as represented by the …, priority 2009, dated 2016).

Tested on: angiogenesis genes in dermal microvascular endothelial cells
Test: Real time RT-PCR of angiogenesis gene expression during endothelial tube formation
Format: cell-based
Details: 1 μM SM, 24 hours

SMILES: COc1ccc(CC2C(=O)NC(C)C(=O)N(C)C3Cc4ccc(cc4)Oc4cc(ccc4O)CC(C(=O)NC(C)C(=O)NC(C)C(=O)N2C)N(C)C3=O)cc1 (centres unmarked) [compound 259969]
- Log2 fold-change of gene expression: 1839: −4.2
- Log2 fold-change of gene expression: 4247: 0.2
- Log2 fold-change of gene expression: 5569: 4.6
- Log2 fold-change of gene expression: 8131: −0.2
- Log2 fold-change of gene expression: 9569: −1.7
- Log2 fold-change of gene expression: 10988: 0.3
- Log2 fold-change of gene expression: 23001: 0.3
- Log2 fold-change of gene expression: 55332: 0.1
- Log2 fold-change of gene expression: 57722: −0.1
- Log2 fold-change of gene expression: 58488: 0.4
- Log2 fold-change of gene expression: 90780: −2.4
- Log2 fold-change of gene expression: 134265: −0.6
- Log2 fold-change of gene expression: AKT1: −1.4
- Log2 fold-change of gene expression: ANGPT1: 1.4
- Log2 fold-change of gene expression: ANGPT2: 0.9
- Log2 fold-change of gene expression: ANGPTL3: 3.6
- Log2 fold-change of gene expression: ANGPTL4: 1.5
- Log2 fold-change of gene expression: ANPEP: 0.2
- Log2 fold-change of gene expression: ANTXR1: −1.4
- Log2 fold-change of gene expression: APOE: 0.8
- Log2 fold-change of gene expression: ARHGEF1: −0.8
- Log2 fold-change of gene expression: Acvrl1: −1.9
- Log2 fold-change of gene expression: Adcy4: −0.6
- Log2 fold-change of gene expression: BAL1: 0.4
- Log2 fold-change of gene expression: BMP1: −0.6
- Log2 fold-change of gene expression: C1orf54: −6.1
- Log2 fold-change of gene expression: CALD1: −0.6
- Log2 fold-change of gene expression: CCL2: 3.6
- Log2 fold-change of gene expression: CCL11: 0.0
- Log2 fold-change of gene expression: CD248: 0.6
- Log2 fold-change of gene expression: CDH5: −1.6
- Log2 fold-change of gene expression: CENTD3: −1.0
- Log2 fold-change of gene expression: CLIC1: 1.8
- Log2 fold-change of gene expression: COL4A3: 3.2
- Log2 fold-change of gene expression: COL18A1: 1.9
- Log2 fold-change of gene expression: COMT: −1.7
- Log2 fold-change of gene expression: CST4: 0.4
- Log2 fold-change of gene expression: CTTNBP2NL: −1.0
- Log2 fold-change of gene expression: CXCL3: 11.6
- Log2 fold-change of gene expression: CXCL5: 10.2
- Log2 fold-change of gene expression: CXCL6: 1.0
- Log2 fold-change of gene expression: CXCL9: 0.5
- Log2 fold-change of gene expression: CXCL10: 2.8
- Log2 fold-change of gene expression: Calcr1: −2.9
- Log2 fold-change of gene expression: Caskin2: −2.3
- Log2 fold-change of gene expression: Ccbp2: 5.6
- Log2 fold-change of gene expression: Cldn5: 0.4
- Log2 fold-change of gene expression: DGKG: 6.1
- Log2 fold-change of gene expression: DKK3: −2.7
- Log2 fold-change of gene expression: DLL4: −4.1
- Log2 fold-change of gene expression: DUT: −1.9
- Log2 fold-change of gene expression: EFNA1: 7.8
- Log2 fold-change of gene expression: EFNA3: 0.3
- Log2 fold-change of gene expression: EFNB2: −6.6
- Log2 fold-change of gene expression: EGF: 0.2
- Log2 fold-change of gene expression: ENG: −0.7
- Log2 fold-change of gene expression: EPHB4: 0.3
- Log2 fold-change of gene expression: EREG: 9.3
- Log2 fold-change of gene expression: ESAM1: −1.6
- Log2 fold-change of gene expression: EXTL3: 0.4
- Log2 fold-change of gene expression: Egf17: −2.3
- Log2 fold-change of gene expression: Ehd4: −0.7
- Log2 fold-change of gene expression: Entpd1: −5.6
- Log2 fold-change of gene expression: Epas1: 1.5
- Log2 fold-change of gene expression: EphB1: 0.6
- Log2 fold-change of gene expression: Erg: −3.9
- Log2 fold-change of gene expression: FGF1: 5.7
- Log2 fold-change of gene expression: FGF2: 2.5
- Log2 fold-change of gene expression: FGFR3: 1.2
- Log2 fold-change of gene expression: FIGF: 0.2
- Log2 fold-change of gene expression: FLT1: −0.7
- Log2 fold-change of gene expression: Fgd5: −0.8
- Log2 fold-change of gene expression: GPCR124: −4.6
- Log2 fold-change of gene expression: GRRP1: 0.6
- Log2 fold-change of gene expression: Grp116: −5.5
- Log2 fold-change of gene expression: HAND2: 1.4
- Log2 fold-change of gene expression: HGF: 1.5
- Log2 fold-change of gene expression: HIF1A: 0.7
- Log2 fold-change of gene expression: HPSE: 2.6
- Log2 fold-change of gene expression: Hspa12b: −10.2
- Log2 fold-change of gene expression: ID1: 1.5
- Log2 fold-change of gene expression: ID3: 2.5
- Log2 fold-change of gene expression: IFNA1: 1.1
- Log2 fold-change of gene expression: IFNB1: 1.6
- Log2 fold-change of gene expression: IFNG: 6.0
- Log2 fold-change of gene expression: IGF1: −2.6
- Log2 fold-change of gene expression: IL1B: 1.3
- Log2 fold-change of gene expression: IL6: 9.4
- Log2 fold-change of gene expression: IL8: 11.3
- Log2 fold-change of gene expression: ITGAV: −0.9
- Log2 fold-change of gene expression: ITGB3: −2.9
- Log2 fold-change of gene expression: Icam1: 2.8
- Log2 fold-change of gene expression: Icam2: 7.5
- Log2 fold-change of gene expression: JAG1: 1.7
- Log2 fold-change of gene expression: KDR: −0.5
- Log2 fold-change of gene expression: Kifc1: −4.8
- Log2 fold-change of gene expression: LAMAS5: −0.8
- Log2 fold-change of gene expression: LECT1: −8.0
- Log2 fold-change of gene expression: LEP: 0.8
- Log2 fold-change of gene expression: Lasts2: 1.5
- Log2 fold-change of gene expression: Lrrk1: 0.3
- Log2 fold-change of gene expression: MDK: −1.0
- Log2 fold-change of gene expression: MMP2: −0.1
- Log2 fold-change of gene expression: MMP9: 4.3
- Log2 fold-change of gene expression: MMP11: 0.1
- Log2 fold-change of gene expression: MRC2: −0.6
- Log2 fold-change of gene expression: Mmm2: −7.5
- Log2 fold-change of gene expression: Myo1b: −3.0
- Log2 fold-change of gene expression: NID1: −3.6
- Log2 fold-change of gene expression: NM023516: 0.9
- Log2 fold-change of gene expression: NRP1: −2.6
- Log2 fold-change of gene expression: NRP2: −3.5
- Log2 fold-change of gene expression: Notch4: −0.3
- Log2 fold-change of gene expression: Npr3: 2.7
- Log2 fold-change of gene expression: PALD: −1.3
- Log2 fold-change of gene expression: PDCD2: −1.7
- Log2 fold-change of gene expression: PDGFA: 1.1
- Log2 fold-change of gene expression: PECAM1: −3.0
- Log2 fold-change of gene expression: PGF: −7.2
- Log2 fold-change of gene expression: PLAU: 3.8
- Log2 fold-change of gene expression: PLG: −1.0
- Log2 fold-change of gene expression: PNMT: −0.1
- Log2 fold-change of gene expression: PROK2: 2.2
- Log2 fold-change of gene expression: PTGS1: 2.9
- Log2 fold-change of gene expression: PTPRCAP: 0.9
- Log2 fold-change of gene expression: Pltp: 1.4
- Log2 fold-change of gene expression: Ptprb: −0.1
- Log2 fold-change of gene expression: Ptprm: 1.7
- Log2 fold-change of gene expression: RAMP2: −5.9
- Log2 fold-change of gene expression: RASD2: 0.5
- Log2 fold-change of gene expression: Rasip1: −1.1
- Log2 fold-change of gene expression: S1PR1: −0.3
- Log2 fold-change of gene expression: SERPINF1: 6.5
- Log2 fold-change of gene expression: SPHK1: 3.2
- Log2 fold-change of gene expression: STAB1: 0.5
- Log2 fold-change of gene expression: Sdc4: 4.0
- Log2 fold-change of gene expression: Sdpr: 0.9
- Log2 fold-change of gene expression: Slc43a3: 0.2
- Log2 fold-change of gene expression: Slco2a1: −2.4
- Log2 fold-change of gene expression: TEK: 1.6
- Log2 fold-change of gene expression: TGFA: 8.7
- Log2 fold-change of gene expression: TGFB1: 0.3
- Log2 fold-change of gene expression: TGFB2: 1.3
- Log2 fold-change of gene expression: TGFBR1: 1.1
- Log2 fold-change of gene expression: THBS1: −0.1
- Log2 fold-change of gene expression: THBS2: 2.6
- Log2 fold-change of gene expression: THY1: −3.0
- Log2 fold-change of gene expression: TIMP1: 2.5
- Log2 fold-change of gene expression: TIMP2: 0.0
- Log2 fold-change of gene expression: TIMP3: −0.6
- Log2 fold-change of gene expression: TNF: 9.3
- Log2 fold-change of gene expression: TNS1: −0.3
- Log2 fold-change of gene expression: TNS3: −8.0
- Log2 fold-change of gene expression: TRA2B: 0.6
- Log2 fold-change of gene expression: TYMP: 0.1
- Log2 fold-change of gene expression: VEGFA: 5.7
- Log2 fold-change of gene expression: VEGFC: 1.9
- Log2 fold-change of gene expression: VGLL4: 1.3
- Log2 fold-change of gene expression: Vwf: −5.4
- Log2 fold-change of gene expression: copa: −2.1
- Log2 fold-change of gene expression: itbp4: −1.7
- Log2 fold-change of gene expression: ralb: 0.7
- Log2 fold-change of gene expression: stard9: 0.0
- Log2 fold-change of gene expression: B2M (1st listing (r49)): 1.2
- Log2 fold-change of gene expression: HPRT1 (1st listing (r50)): 0.6
- Log2 fold-change of gene expression: RPL13A (1st listing (r51)): 1.2
- Log2 fold-change of gene expression: GADPH (1st listing (r52)): −1.0
- Log2 fold-change of gene expression: ACTB (1st listing (r53)): −2.5
- Log2 fold-change of gene expression: PLXDC1 (1st listing (r74)): 2.3
- Log2 fold-change of gene expression: TNFAIP2 (1st listing (r91)): 4.6
- Log2 fold-change of gene expression: Robo4 (1st listing (r95)): −4.1
- Log2 fold-change of gene expression: 151516 (1st listing (r134)): 0.5
- Log2 fold-change of gene expression: TNFAIP2 (2nd listing (r92)): 4.7
- Log2 fold-change of gene expression: B2M (2nd listing (r97)): 1.5
- Log2 fold-change of gene expression: HPRT1 (2nd listing (r98)): −0.5
- Log2 fold-change of gene expression: RPL13A (2nd listing (r99)): 0.7
- Log2 fold-change of gene expression: GADPH (2nd listing (r100)): 0.0
- Log2 fold-change of gene expression: ACTB (2nd listing (r101)): −2.2
- Log2 fold-change of gene expression: PLXDC1 (2nd listing (r104)): −2.4
- Log2 fold-change of gene expression: 151516 (2nd listing (r139)): 0.5
- Log2 fold-change of gene expression: Robo4 (2nd listing (r188)): 0.3
- Log2 fold-change of gene expression: B2M (3rd listing (r145)): 0.5
- Log2 fold-change of gene expression: HPRT1 (3rd listing (r146)): 0.8
- Log2 fold-change of gene expression: RPL13A (3rd listing (r147)): 0.0
- Log2 fold-change of gene expression: GADPH (3rd listing (r148)): −1.7
- Log2 fold-change of gene expression: ACTB (3rd listing (r149)): −2.2
- Log2 fold-change of gene expression: B2M (4th listing (r193)): 0.8
- Log2 fold-change of gene expression: HPRT1 (4th listing (r194)): 0.5
- Log2 fold-change of gene expression: RPL13A (4th listing (r195)): 0.0
- Log2 fold-change of gene expression: GADPH (4th listing (r196)): −2.1
- Log2 fold-change of gene expression: ACTB (4th listing (r197)): 0.4
